Results published in ChEMBL document CHEMBL1201861, “Genomics of Drug Sensitity in Cancer screening data, Wellcome Trust Sanger Institute”.
pIC50: −log10 of the molar value.

Key:
Assay in all cases: cells
COLO-741 = type: functional, cell-based, Homo sapiens; conditions: Homo sapiens, COLO-741
Description: SANGER: Inhibition of human COLO-741 cell growth in a cell viability assay.

CTB-1 = type: functional, cell-based; conditions: Homo sapiens
Description: SANGER: Inhibition of human CTB-1 cell growth in a cell viability assay.

CaR-1 = type: functional, cell-based, Homo sapiens; conditions: Homo sapiens, CaR-1
Description: SANGER: Inhibition of human CaR-1 cell growth in a cell viability assay.

EFM-19 = type: functional, cell-based, Homo sapiens; conditions: Homo sapiens, EFM-19
Description: SANGER: Inhibition of human EFM-19 cell growth in a cell viability assay.

EGI-1 = type: functional, cell-based, Homo sapiens; conditions: Homo sapiens, EGI-1
Description: SANGER: Inhibition of human EGI-1 cell growth in a cell viability assay.

ES5 = type: functional, cell-based, Homo sapiens; conditions: Homo sapiens, ES5
Description: SANGER: Inhibition of human ES5 cell growth in a cell viability assay.

HCE-T = type: functional, cell-based, Homo sapiens; conditions: Homo sapiens, HCE-T
Description: SANGER: Inhibition of human HCE-T cell growth in a cell viability assay.

HDLM-2 = type: functional, cell-based; conditions: Homo sapiens
Description: SANGER: Inhibition of human HDLM-2 cell growth in a cell viability assay.

HEC-1 = type: functional, cell-based, Homo sapiens; conditions: Homo sapiens, HEC-1
Description: SANGER: Inhibition of human HEC-1 cell growth in a cell viability assay.

Huh-7 = type: functional, cell-based, Homo sapiens; conditions: Homo sapiens, Huh-7
Description: SANGER: Inhibition of human HuH-7 cell growth in a cell viability assay.

KG-1 = type: functional, cell-based; conditions: Homo sapiens
Description: SANGER: Inhibition of human KG-1 cell growth in a cell viability assay.

LK-2 = type: functional, cell-based, Homo sapiens; conditions: Homo sapiens, LK-2
Description: SANGER: Inhibition of human LK-2 cell growth in a cell viability assay.

LS-513 = type: functional, cell-based, Homo sapiens; conditions: Homo sapiens, LS-513
Description: SANGER: Inhibition of human LS-513 cell growth in a cell viability assay.

Lu-65 = type: functional, cell-based; conditions: Homo sapiens
Description: SANGER: Inhibition of human LU-65 cell growth in a cell viability assay.

M14 = type: functional, cell-based, Homo sapiens; conditions: Homo sapiens, M14
Description: SANGER: Inhibition of human M14 cell growth in a cell viability assay.

MC116 = type: functional, cell-based; conditions: Homo sapiens
Description: SANGER: Inhibition of human MC116 cell growth in a cell viability assay.

MHH-PREB-1 = type: functional, cell-based; conditions: Homo sapiens
Description: SANGER: Inhibition of human MHH-PREB-1 cell growth in a cell viability assay.

MKN-1 = type: functional, cell-based, Homo sapiens; conditions: Homo sapiens, MKN-1
Description: SANGER: Inhibition of human MKN1 cell growth in a cell viability assay.

NCI-H1693 = type: functional, cell-based, Homo sapiens; conditions: Homo sapiens, NCI-H1693
Description: SANGER: Inhibition of human NCI-H1693 cell growth in a cell viability assay.

NCI-H1838 = type: functional, cell-based, Homo sapiens; conditions: Homo sapiens, NCI-H1838
Description: SANGER: Inhibition of human NCI-H1838 cell growth in a cell viability assay.

NCI-H2342 = type: functional, cell-based; conditions: Homo sapiens
Description: SANGER: Inhibition of human NCI-H2342 cell growth in a cell viability assay.

NCI-H28 = type: functional, cell-based, Homo sapiens; conditions: Homo sapiens, NCI-H28
Description: SANGER: Inhibition of human NCI-H28 cell growth in a cell viability assay.

NCI-H510A = type: functional, cell-based; conditions: Homo sapiens
Description: SANGER: Inhibition of human NCI-H510A cell growth in a cell viability assay.

NCI-H520 = type: functional, cell-based, Homo sapiens; conditions: Homo sapiens, NCI-H520
Description: SANGER: Inhibition of human NCI-H520 cell growth in a cell viability assay.

NCI-H650 = type: functional, cell-based, Homo sapiens; conditions: Homo sapiens, NCI-H650
Description: SANGER: Inhibition of human NCI-H650 cell growth in a cell viability assay.

NCI-H747 = type: functional, cell-based; conditions: Homo sapiens
Description: SANGER: Inhibition of human NCI-H747 cell growth in a cell viability assay.

NCI-N87 = type: functional, cell-based, Homo sapiens; conditions: Homo sapiens, NCI-N87
Description: SANGER: Inhibition of human NCI-N87 cell growth in a cell viability assay.

NKM-1 = type: functional, cell-based; conditions: Homo sapiens
Description: SANGER: Inhibition of human NKM-1 cell growth in a cell viability assay.

NTERA-2-cl-D1 = type: functional, cell-based, Homo sapiens; conditions: Homo sapiens, NTERA-2-cl-D1
Description: SANGER: Inhibition of human NTERA-S-cl-D1 cell growth in a cell viability assay.

RCC10RGB = type: functional, cell-based, Homo sapiens; conditions: Homo sapiens, RCC10RGB
Description: SANGER: Inhibition of human RCC10RGB cell growth in a cell viability assay.

RKO = type: functional, cell-based, Homo sapiens; conditions: Homo sapiens, RKO
Description: SANGER: Inhibition of human RKO cell growth in a cell viability assay.

RVH-421 = type: functional, cell-based, Homo sapiens; conditions: Homo sapiens, RVH-421
Description: SANGER: Inhibition of human RVH-421 cell growth in a cell viability assay.

RXF 393 = type: functional, cell-based; conditions: Homo sapiens
Description: SANGER: Inhibition of human RXF393 cell growth in a cell viability assay.

SCC-4 = type: functional, cell-based, Homo sapiens; conditions: Homo sapiens, SCC-4
Description: SANGER: Inhibition of human SCC-4 cell growth in a cell viability assay.

SCC-9 = type: functional, cell-based, Homo sapiens; conditions: Homo sapiens, SCC-9
Description: SANGER: Inhibition of human SCC-9 cell growth in a cell viability assay.

SHP77 = type: functional, cell-based, Homo sapiens, SHP-77; conditions: Homo sapiens, SHP77
Description: SANGER: Inhibition of human SHP-77 cell growth in a cell viability assay.

SW13 = type: functional, cell-based, Homo sapiens; conditions: Homo sapiens, SW13
Description: SANGER: Inhibition of human SW13 cell growth in a cell viability assay.

SW1463 = type: functional, cell-based, Homo sapiens; conditions: Homo sapiens, SW1463
Description: SANGER: Inhibition of human SW1463 cell growth in a cell viability assay.

SW1710 = type: functional, cell-based, Homo sapiens; conditions: Homo sapiens, SW1710
Description: SANGER: Inhibition of human SW1710 cell growth in a cell viability assay.

SW48 = type: functional, cell-based, Homo sapiens; conditions: Homo sapiens, SW48
Description: SANGER: Inhibition of human SW48 cell growth in a cell viability assay.

SAOS-2 = type: functional, cell-based, Homo sapiens; conditions: Homo sapiens, SAOS-2
Description: SANGER: Inhibition of human Saos-2 cell growth in a cell viability assay.

8305C = type: functional, cell-based, Homo sapiens; conditions: Homo sapiens, 8305C
Description: SANGER: Inhibition of human 8305C cell growth in a cell viability assay.

A101D = type: functional, cell-based, Homo sapiens; conditions: Homo sapiens, A101D
Description: SANGER: Inhibition of human A101D cell growth in a cell viability assay.

AGS = type: functional, cell-based, Homo sapiens; conditions: Homo sapiens, AGS
Description: SANGER: Inhibition of human AGS cell growth in a cell viability assay.

BT-20 = type: functional, cell-based, Homo sapiens; conditions: Homo sapiens, BT-20
Description: SANGER: Inhibition of human BT-20 cell growth in a cell viability assay.

CAL-27 = type: functional, cell-based, Homo sapiens; conditions: Homo sapiens, CAL-27
Description: SANGER: Inhibition of human CAL-27 cell growth in a cell viability assay.

U-266 = type: functional, cell-based; conditions: Homo sapiens
Description: SANGER: Inhibition of human U-266 cell growth in a cell viability assay.

U-87 MG = type: functional, cell-based, U-87MG ATCC; conditions: Homo sapiens
Description: SANGER: Inhibition of human U-87-MG cell growth in a cell viability assay.

no-10 = type: functional, cell-based, Homo sapiens; conditions: Homo sapiens
Description: SANGER: Inhibition of human no-10 cell growth in a cell viability assay.

no-11 = type: functional, cell-based, Homo sapiens; conditions: Homo sapiens
Description: SANGER: Inhibition of human no-11 cell growth in a cell viability assay.

CAMA-1 = type: functional, cell-based, Homo sapiens; conditions: Homo sapiens, CAMA-1
Description: SANGER: Inhibition of human CAMA-1 cell growth in a cell viability assay.

CGTH-W-1 = type: functional, cell-based, Homo sapiens; conditions: Homo sapiens, CGTH-W-1
Description: SANGER: Inhibition of human CGTH-W-1 cell growth in a cell viability assay.

## C=CCc1cccc(/C=N/NC(=O)CN2CCN(Cc3ccccc3)CC2)c1O [PAC-1]
COLO-741
  pIC50: < 5.59
CTB-1
  pIC50: 5.84
CaR-1
  pIC50: < 5.59
EFM-19
  pIC50: 5.71
EGI-1
  pIC50: < 5.59
ES5
  pIC50: < 5.59
HCE-T
  pIC50: < 5.59
HDLM-2
  pIC50: 5.74
HEC-1
  pIC50: < 5.59
Huh-7
  pIC50: < 5.59
KG-1
  pIC50: < 5.59
LK-2
  pIC50: < 5.59
LS-513
  pIC50: < 5.59
Lu-65
  pIC50: < 5.59
M14
  pIC50: < 5.59
MC116
  pIC50: 5.92
MHH-PREB-1
  pIC50: < 5.59
MKN-1
  pIC50: < 5.59
NCI-H1693
  pIC50: < 5.59
NCI-H1838
  pIC50: < 5.59
NCI-H2342
  pIC50: < 5.59
NCI-H28
  pIC50: < 5.59
NCI-H510A
  pIC50: < 5.59
NCI-H520
  pIC50: < 5.59
NCI-H650
  pIC50: < 5.59
NCI-H747
  pIC50: < 5.59
NCI-N87
  pIC50: < 5.59
NKM-1
  pIC50: < 5.59
NTERA-2-cl-D1
  pIC50: < 5.59
RCC10RGB
  pIC50: < 5.59
RKO
  pIC50: < 5.59
RVH-421
  pIC50: < 5.59
RXF 393
  pIC50: < 5.59
SCC-4
  pIC50: < 5.59
SCC-9
  pIC50: < 5.59
SHP77
  pIC50: < 5.59
SW13
  pIC50: < 5.59
SW1463
  pIC50: < 5.59
SW1710
  pIC50: < 5.59
SW48
  pIC50: < 5.59
SAOS-2
  pIC50: < 5.59
8305C
  pIC50: < 5.59
A101D
  pIC50: < 5.59
AGS
  pIC50: < 5.59
BT-20
  pIC50: < 5.59
CAL-27
  pIC50: < 5.59
U-266
  pIC50: < 5.59
U-87 MG
  pIC50: < 5.59
no-10
  pIC50: < 5.59
no-11
  pIC50: < 5.59
CAMA-1
  pIC50: < 5.59
CGTH-W-1
  pIC50: < 5.59

## O=C(NOCC1CC1)c1ccc(F)c(F)c1Nc1ccc(I)cc1Cl [CI-1040]
COLO-741
  pIC50: 5.50
CTB-1
  pIC50: 5.46
CaR-1
  pIC50: < 5.00
EFM-19
  pIC50: < 5.00
EGI-1
  pIC50: 5.44
ES5
  pIC50: < 5.00
HCE-T
  pIC50: 5.55
HDLM-2
  pIC50: < 5.00
HEC-1
  pIC50: < 5.00
Huh-7
  pIC50: 5.28
KG-1
  pIC50: 6.51
LK-2
  pIC50: < 5.00
LS-513
  pIC50: 5.84
Lu-65
  pIC50: < 5.00
M14
  pIC50: 6.81
MC116
  pIC50: < 5.00
MHH-PREB-1
  pIC50: 5.38
MKN-1
  pIC50: < 5.00
NCI-H1693
  pIC50: 5.05
NCI-H1838
  pIC50: < 5.00
NCI-H2342
  pIC50: < 5.00
NCI-H28
  pIC50: < 5.00
NCI-H510A
  pIC50: < 5.00
NCI-H520
  pIC50: < 5.00
NCI-H650
  pIC50: < 5.00
NCI-H747
  pIC50: 5.33
NCI-N87
  pIC50: < 5.00
NKM-1
  pIC50: < 5.00
NTERA-2-cl-D1
  pIC50: < 5.00
RCC10RGB
  pIC50: < 5.00
RKO
  pIC50: 5.05
RVH-421
  pIC50: 6.01
RXF 393
  pIC50: 5.70
SCC-4
  pIC50: < 5.00
SCC-9
  pIC50: < 5.00
SHP77
  pIC50: < 5.00
SW13
  pIC50: < 5.00
SW1463
  pIC50: 5.87
SW1710
  pIC50: 5.25
SW48
  pIC50: 5.16
SAOS-2
  pIC50: < 5.00
8305C
  pIC50: 5.15
A101D
  pIC50: 6.67
AGS
  pIC50: 6.93
BT-20
  pIC50: < 5.00
CAL-27
  pIC50: 5.62
U-266
  pIC50: 5.12
U-87 MG
  pIC50: < 5.00
no-10
  pIC50: < 5.00
no-11
  pIC50: < 5.00
CAMA-1
  pIC50: < 5.00
CGTH-W-1
  pIC50: 5.41

## Cn1cc(C2=C(c3ccc(Cl)cc3Cl)C(=O)NC2=O)c2ccccc21 [SB-216763]
COLO-741
  pIC50: < 5.00
CTB-1
  pIC50: < 5.00
CaR-1
  pIC50: < 5.00
EFM-19
  pIC50: < 5.00
EGI-1
  pIC50: < 5.00
ES5
  pIC50: < 5.00
HCE-T
  pIC50: < 5.00
HDLM-2
  pIC50: 6.68
HEC-1
  pIC50: < 5.00
Huh-7
  pIC50: < 5.00
KG-1
  pIC50: < 5.00
LK-2
  pIC50: < 5.00
LS-513
  pIC50: < 5.00
Lu-65
  pIC50: < 5.00
M14
  pIC50: < 5.00
MC116
  pIC50: < 5.00
MHH-PREB-1
  pIC50: < 5.00
MKN-1
  pIC50: < 5.00
NCI-H1693
  pIC50: < 5.00
NCI-H1838
  pIC50: < 5.00
NCI-H2342
  pIC50: < 5.00
NCI-H28
  pIC50: < 5.00
NCI-H510A
  pIC50: < 5.00
NCI-H520
  pIC50: < 5.00
NCI-H650
  pIC50: < 5.00
NCI-H747
  pIC50: < 5.00
NCI-N87
  pIC50: < 5.00
NKM-1
  pIC50: < 5.00
NTERA-2-cl-D1
  pIC50: < 5.00
RCC10RGB
  pIC50: < 5.00
RKO
  pIC50: < 5.00
RVH-421
  pIC50: < 5.00
RXF 393
  pIC50: < 5.00
SCC-4
  pIC50: < 5.00
SCC-9
  pIC50: < 5.00
SHP77
  pIC50: < 5.00
SW13
  pIC50: < 5.00
SW1463
  pIC50: < 5.00
SW1710
  pIC50: < 5.00
SW48
  pIC50: < 5.00
SAOS-2
  pIC50: < 5.00
8305C
  pIC50: < 5.00
A101D
  pIC50: < 5.00
AGS
  pIC50: < 5.00
BT-20
  pIC50: < 5.00
CAL-27
  pIC50: < 5.00
U-266
  pIC50: < 5.00
U-87 MG
  pIC50: < 5.00
no-10
  pIC50: < 5.00
no-11
  pIC50: < 5.00
CAMA-1
  pIC50: < 5.00
CGTH-W-1
  pIC50: < 5.00
